Source: patent publication US10046038B2, “Leptospira with increased antigenic mass” (priority 2012, dated 2018)
Where two headings read alike, the source gives them in different places.

What was measured:
[1] = test system: Leptospira serogroup Icterohaemorrhagiae; assay: Antigenic mass of fermenter culture by antigen Elisa; format: cell-based, L. interrogans (sensu lato); settings: for relative Ag. mass (%): non-supplemented = 100
Procedure: A working seed of a strain of L. interrogans was inoculated into EMJH medium and incubated at 29° C. for 3 to 5 days. If needed up to 5 consecutive pre-culture passages could be made, whereby the pre-cultures were visually inspected for sufficient proliferation (turbidity) as criterion for transfer to the next passage.
(§1) All experiments were performed in 0.5, 2 or 20 L working volume, computer-controlled fermenters (Sartorius), which were filled with 0.5, 1 or 10 L sterile-filtered EMJH medium, respectively. The standard EMJH medium contained 1% w/v BSA and 0.125% w/v polysorbate 80. The pH of the medium was 7.4 ±0.1 at start. The fermenter was inoculated with 5% v/v serogroup lcterohaemorrhagiae pre-culture (passage 5), giving an inoculation density of 2-4×10^7 cells/ml at day 0.
(§2) During all fermentation experiments the temperature was controlled at about 29° C. The medium was aerated with headspace airflow, and the dissolved oxygen (pO2) concentration was controlled by automatic variation of the agitation-rate, to maintain a set pO2 concentration. Temperature, pH and pO2 concentration were monitored online, but pH and foam formation were not controlled.
In comparative experiments up to 4 fermenters were run in parallel, which started off simultaneously with the same medium and Leptospira inoculum. One fermenter then usually contained only standard EMJH medium and served as reference, while in the others different supplementations of polyunsaturated C18 fatty acid were made.
(§3) Supplementation was done either with pure linoleic acid (Sigma Aldrich, >99% pure) as a 10% v/v stock in absolute ethanol (JT Baker). Alternatively, linoleic acid was supplemented by using a BSA that was created with a high level of linoleic acid (high LA BSA). This high LA BSA was used either to replace a standard BSA in EMJH medium, or was used in addition to BSA in the EMJH medium, in which case it was added as a 25% w/v stock solution in sterile water. The high LA BSA or the pure linoleic acid/ethanol supplements were fed to a fermenter over the course of 4 hours, at 0.1-0.2 ml/hour, until the fermenter culture had received a desired total amount of linoleic acid. Different total available levels of linoleic acid have been tested, of between about 5 and 425 μg/ml in the total volume. The fermenter cultures of Leptospira were supplemented at different cell-densities i.e. at early-, mid- or end phase culture.
(§4) Daily 5 ml samples were taken aseptically, directly from the fermenter, for analyses of total cell count (by Petroff-Hausser counting chamber); antigenic mass (by antigen amount Elisa); inactivated cells; and for profiling of the fatty acid type and-relative amounts (by gas chromatography) in the culture medium.
(§5) Samples were inactivated with 0.1 or 0.2% v/v BPL, at 29° C. for 16-24 hours. The inactivated Leptospira were tested in an antigen Elisa within 24 hours.
(§6) For a reference see: R. A. Hartskeerl et al., (International course on laboratory methods for the diagnosis of Leptospirosis, 4th Edition, 1 Apr. 2004. Royal Tropical Institute, Amsterdam).
(§7) The Elisa's were set up as capture assays, whereby the same moab was used for coating and for detection.
A reference standard was prepared for each Leptospira strain that was tested by antigen Elisa. The standard is a batch of monovalent Leptospira antigen, from inactivated cells. This was prepared using common techniques, essentially by proliferating a specific strain of Leptospira in EMJH medium as described above, and was inactivated as described before.

[2] = test system: Leptospira serogroup Grippotyphosa; format: cell-based, L. interrogans (sensu lato); settings: supplementation with linoleic acid; days 4 and 5
[3] = test system: Leptospira serogroup Australis (serovar Bratislava); format: cell-based, L. interrogans (sensu lato); settings: linoleic acid supplementation of low LA BSA medium
[4] = test system: Leptospira serogroup Tarassovi; format: cell-based, L. interrogans (sensu lato); settings: EMJH standard BSA, vs unsupplemented reference culture
Procedure: as §1, §3, §4, §5, §6, §7
A reference standard was prepared for each Leptospira strain that was tested by antigen Elisa. The standard is a batch of monovalent Leptospira antigen, from inactivated cells. This was prepared using common techniques, essentially by proliferating a specific strain of Leptospira in EMJH medium as described above, and was inactivated as described before. Next the standard was concentrated and/or diluted in phosphate buffered saline, to contain about 1×10^9 cells/ml. An arbitrary number of antigen units was affixed to the sample, for example: 1000 Units/ml. When the standard needed replenishing, a subsequent preparation of the same standard, was compared and titrated alongside the old standard several times, before replacing it.
As before, the average antigenic mass score by Elisa was calculated per 1×10^9 cells (pre-inactivation). […] The average antigenic mass 1×10^9 cells of the reference culture was set at 0% increase.
Both alpha-and gamma C18:3 were purchased as pure chemicals (>98%).

[5] = test system: Leptospira serogroup Icterohaemorrhagiae; assay: Biomass (total cell count) and toxicity in fermenter culture; format: cell-based, L. interrogans (sensu lato); settings: additional 400 μg/ml pure linoleic acid in ethanol; EMJH with high LA BSA
Procedure: as §2

[6] = test system: Leptospira serogroup Tarassovi; assay: Biomass and toxicity in fermenter culture; format: cell-based, L. interrogans (sensu lato); settings: 300 μg/ml C18:2; EMJH standard BSA
Procedure: In a supplementation similar to that described in Example 6 above, the effect of supplementation with different amounts of C18:2 fatty acid on the biomass and the antigenic mass of a culture of Leptospira serogroup Tarassovi in EMJH medium with standard BSA was tested.

[7] = test system: Leptospira; settings: most serogroups other than Canicola; alpha or gamma isomer

CCCCCC=CCC=CCCCCCCCC(=O)O [linoleic acid, 9, 12-octadecadienoic acid]
Ag. mass, Ag U/10^9 cells/ml ([1]; 100 μg/ml added at 1 × 10^8 cells/ml, total 105 μg/ml, average of days 4-5): 1783 Ag U/10^9 cells/ml
relative Ag. mass (%) ([1]; 100 μg/ml added at 1 × 10^8 cells/ml, average of days 4-5): 226%
Ag. mass, Ag U/10^9 cells/ml ([1]; 100 μg/ml added at 5 × 10^8 cells/ml, total 105 μg/ml, average of days 4-5): 1564 Ag U/10^9 cells/ml
relative Ag. mass (%) ([1]; 100 μg/ml added at 5 × 10^8 cells/ml, average of days 4-5): 198%
Ag. mass, Ag U/10^9 cells/ml ([1]; 100 μg/ml added at 9 × 10^8 cells/ml, total 105 μg/ml, average of days 4-5): 1656 Ag U/10^9 cells/ml
relative Ag. mass (%) ([1]; 100 μg/ml added at 9 × 10^8 cells/ml, average of days 4-5): 210%
antigenic mass ([1]; 100 μg/ml pure linoleic acid in ethanol added on day 2 (mid-exponential) to EMJH with high LA BSA, average of days 3-5): 1767 Ag. U/1×10^9 cells
increase in relative antigenic mass ([1]; 100 μg/ml single fatty acid, FIGS. 37 and 38): 77%
increase of antigenic mass ([1]; 25 instead of 5 μg/ml linoleic acid available): 124%
increase of the antigenic mass (in words) ([1]; additional 200 μg/ml pure linoleic acid, EMJH with high LA BSA): slightly less increase of the antigenic mass compared to that of the 100 μg/ml group
Ag. mass, Ag U/10^9 cells/ml ([1]; supplem. pure C18:2 75 μg/ml, total 80 μg/ml, EMJH standard BSA, average of days 3-5): 1450 Ag U/10^9 cells/ml
relative Ag. mass (%) ([1]; supplem. pure C18:2 75 μg/ml, total 80 μg/ml, average of days 3-5): 199%
Ag. mass, Ag U/10^9 cells/ml ([1]; supplem. pure C18:2 150 μg/ml, total 155 μg/ml, EMJH standard BSA, average of days 3-5): 1550 Ag U/10^9 cells/ml
relative Ag. mass (%) ([1]; supplem. pure C18:2 150 μg/ml, total 155 μg/ml, average of days 3-5): 213%
increase in the antigenic mass [2]: 63%
increase in antigenic mass [3]: 45%
increase in antigenic mass per unit of biomass ([4]; 100 μg/ml C18:2): 67%
increase in antigenic mass per unit of biomass ([4]; 200 μg/ml C18:2): 99%
toxicity for the bacteria (cell numbers after supplementation) [5]: induced toxicity
toxicity to the culture [6]: toxic

CC/C=C\C/C=C\C/C=C\CCCCCCCC(=O)O [C18:3, Linolenic acid]
supplementation level showing cytotoxicity [7]: ≥ 200 µg/mL
